According to article PMC11928319 (Nature Plants, 2025):
Where no end group is shown, it is not given here.

Test system: filter-sterile supernatant of D. japonica MF79
Test: Peptide quantification by mass spectrometry after incubation in cell-free supernatant of D. japonica MF79
Type: in vitro ADME, Dyella japonica MF79
Details: for peptide degradation in culture supernatant of wild-type D. japonica MF79 / peptide depletion in supernatant of the D. japonica MF79 gspD mutant: 1 µM peptide, 1 h, filter-sterile supernatant, XVM2 (OD600 = 0.6), LC-MS; for Log10(total_area_MS1) / percent_rel_axenic: incubation 1h; for Log10(total_area_MS1): MS1 precursor area; for percent_rel_axenic: peptide relative to axenic
Method: Elicitors were also supplemented into the medium prior to solidification at a final concentration of 1 µM. The flg22 ([…]) and AtPep1 ([…]) peptides were synthesized by EZbiolab. elf18^R179 (Ac-[…]) and elf18 (Ac-[…]) were synthesized by GenScript and EZbiolab, respectively. […] Bacteria were pelleted by centrifugation (11,600 g, 2 min), and the supernatant was sterile-filtered using filter units with MF-Millipore membrane (0.22 µm; Millex). The supernatant was incubated in boiling water for 30 min for heat treatment. Then, 25 ml of 1× MS with 20 g l^−1 Bacto Agar was mixed with 25 ml of supernatant prior to medium solidification and poured into square petri dishes. Sterilized seeds were placed on solidified agar in square petri dishes and vertically incubated for 14 days.
Bacterial supernatants were prepared as described in ‘Agar-based cultivation of axenic plants and co-cultivation with bacteria, bacterial supernatants and elicitors’. Here, additionally, the peptides dRGF1 (DYSNPGHHP-Hyp-RHN) and PSY1 (D-Y(SO3H)-[…]-Hyp-Hyp-S) synthesized by Scilight Peptide were incubated for 1 h with 1 µM of peptides in a plant cultivation light chamber (day-light condition; see ‘Plant cultivation conditions’), and the samples were frozen at −20 °C until further processing. For the investigation of AtPep1 degradation, the AtPep1 peptide was first modified by acetylation (six to seven times). To this end, 100-µl aliquots of peptides were treated with 10 µl of NHS acetate solution (1 M NHS acetate in 50% ACN/PBS) and incubated for 30 min with shaking. The reaction was quenched by the addition of 100 µl of 100 mM Tris-HCl (pH 8.5) and incubated for 10 min. For comparison of the non-acetylated peptides with the above-described modified AtPep1 peptides, aliquots of the non-acetylated peptides were processed as described above, but without the modifying NHS reaction. To this end, 100-µl aliquots of the sample were mixed with 100 µl of PBS buffer (137 mM NaCl, 2.7 mM KCl, 10 mM Na2HPO4, 1.8 mM KH2PO4; pH 7.4). The samples were then further diluted with 100 µl of 100 mM Tris-HCl (pH 8.5) and incubated for 10 min. All samples were acidified with 5 µl of TFA and desalted using StageTips with C18 Empore disk membranes (3M)[109]. The samples were dried in a vacuum evaporator and dissolved in 10 µl of 2% ACN (0.1% TFA for analysis).
The samples were analysed using an EASY-nLC 1200 (Thermo Fisher) coupled to a QExactive Plus mass spectrometer (Thermo Fisher). Peptides were separated on 16-cm frit-less silica emitters (New Objective, 75 µm inner diameter), packed in-house with reversed-phase ReproSil-Pur C18 AQ 1.9 µm resin (Dr. Maisch). Peptides were loaded on the column and eluted for 50 min using a segmented linear gradient of 5% to 95% solvent B (0 min, 5% B; 0–5 min, 15% B; 5–35 min, 50% B; 35–45 min, 95% B; 45–50 min, 95% B) (solvent A: 0% ACN, 0.1% FA; solvent B: 80% ACN, 0.1% FA) at a flow rate of 300 nl min^−1. Mass spectra were acquired in data-dependent acquisition mode with a TOP10 method. Mass spectrometry spectra were acquired in the Orbitrap analyser with a mass range of 300–1,500 m/z at a resolution of 70,000 full width at half maximum (FWHM) and a target value of 3 × 10^6 ions. Precursors were selected with an isolation window of 1.3 m/z. Higher-energy collision dissociation (HCD) fragmentation was performed at a normalized collision energy of 25. Tandem mass spectrometry (MS/MS) spectra were acquired with a target value of 5 × 10^5 ions at a resolution of 17,500 FWHM, a maximum injection time of 85 ms and a fixed first mass of 100 m/z. Peptides with a charge of 1 or greater than 6 or with an unassigned charge state were excluded from fragmentation for MS/MS; dynamic exclusion for 20 s prevented repeated selection of precursors. The raw data were analysed on the MS1 level using Skyline (https://skyline.ms)[110], and the results were filtered for the respective intact peptides, or the acetylated version in the case of AtPep1. […]

[1] = MF79 gspD mutant supernatant, XVM2 medium, replicate 1
[2] = MF79 gspD mutant supernatant, XVM2 medium, replicate 2
[3] = MF79 gspD mutant supernatant, XVM2 medium, replicate 3
[4] = MF79 supernatant, XVM2 medium, replicate 1
[5] = MF79 supernatant, XVM2 medium, replicate 2
[6] = MF79 supernatant, XVM2 medium, replicate 3
[7] = axenic XVM2 medium control, replicate 1
[8] = axenic XVM2 medium control, replicate 2
[9] = axenic XVM2 medium control, replicate 3

Substance | peptide degradation in culture supernatant of wild-type D. japonica MF79 | peptide depletion in supernatant of the D. japonica MF79 gspD mutant | Log10(total_area_MS1) [1] | Log10(total_area_MS1) [2] | Log10(total_area_MS1) [3] | percent_rel_axenic [1] [%] | percent_rel_axenic [2] [%] | percent_rel_axenic [3] [%] | Log10(total_area_MS1) [4] | Log10(total_area_MS1) [5] | Log10(total_area_MS1) [6] | percent_rel_axenic [4] [%] | percent_rel_axenic [5] [%] | percent_rel_axenic [6] [%] | Log10(total_area_MS1) [7] | Log10(total_area_MS1) [8] | Log10(total_area_MS1) [9] | percent_rel_axenic [7] [%] | percent_rel_axenic [8] [%] | percent_rel_axenic [9] [%]
Ac-SKEKFERTKPHVNVGTIG [elf18] | similarly effective in degrading | depleted | 7.363 | 7.327 | 7.195 | 0.1126 | 0.1036 | 0.0764 | 8.052 | 7.627 | 7.56 | 0.5496 | 0.2067 | 0.1772 | 10.4148 | 10.2259 | 10.2716 | 126.772 | 82.063 | 91.1647
ATKVKAKQRGKEKVSSGRPGQHN [AtPep1] | similarly effective in degrading | depleted | 0 | 0 | 0 | 0 | 0 | 0 | 7.596 | 7.38 | 6.998 | 0.3481 | 0.2117 | 0.0878 |  | 10.0991 | 9.961 |  | 110.888 | 80.7256
QRLSTGSRINSAKDDAAGLQIA [flg22] | similarly effective in degrading | depleted | 0 | 0 | 0 | 0 | 0 | 0 | 0 | 0 | 0 | 0 | 0 | 0 | 7.6416 | 7.393 | 7.844 | 94.9639 | 53.5357 | 151.5
